Assay: DPPH radical scavenging antioxidant test
Assay type: biochemical
Conditions: 517 nm; for Inhibition (radical scavenging inhibition): 0.2 mL DPPH (0.75 mM), compound 3 μM in ethanol, 30 minutes in the dark
Procedure: The antioxidant properties of the 8-((4-hydroxyphenyl)diazenyl)naphthalene-1,3-disulfonic acid compound were studied by adding 0.2 mL DPPH (0.75 mM)) to 8-((4-hydroxyphenyl)diazenyl)naphthalene-1,3-disulfonic acid (III) (3 μM) in ethanol. After 30 minutes of incubation in the dark, the absorbance was read against a blank at 517 nm. Ascorbic acid (vitamin C) was used as standard antioxidants (positive control). A blank sample was prepared by 0.2 ml of DPPH in 3 mL ethanol. A negative control sample was run using ethanol instead of the sample. The radical scavenging inhibition was calculated using the following equation: […]
The antioxidant activity for the synthesized compound is listed in Table 1, using Vitamin C as a reference.

Compound	Inhibition (radical scavenging inhibition)	antioxidant potential in DPPH test compared to vitamin C (in words) (DPPH in vitro test, vitamin C as positive control)
O=S(=O)(O)c1cc(S(=O)(=O)O)c2c(/N=N/c3ccc(O)cc3)cccc2c1 [Product III, 8-((4-hydroxyphenyl)diazenyl)naphthalene-1,3-disulfonic acid]	52%	high potential as an antioxidant compared to vitamin C
O=C1O[C@H]([C@@H](O)CO)C(O)=C1O [vit c, Ascorbic acid, reference compound]	74%	–
